Assay results from PubChem BioAssay AID248 (DTP/NCI, 2004).
Where “and” joins values, the source holds several entries; their conditions need not be identical. Identical values can stand only once. Inconclusive results and toxic doses are left out. No stated cut-off is given here; in the data, active means T/C of 150% or more; inactive means T/C below 125%.

Test system: L1210 leukemia ip in BDF1 mice, survival T/C
Test: NCI In Vivo Anticancer Drug Screen. Data for tumor model L1210 Leukemia (intraperitoneal) in B6D2F1 (BDF1) mice
Conditions: endpoint: mean survival time, higher = longer survival
In short: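 In this screen, tumor-bearing mice given compound are compared to those given vehicle, and their survival values are reported as a treated-to-control quotient.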

[1] = dose: 100.0 mg/kg/injection, schedule: Q04DX003 (ip), vehicle: saline with Tween-80
[2] = dose: 200.0 mg/kg/injection, schedule: Q04DX003 (ip), vehicle: saline with Tween-80
[3] = dose: 400.0 mg/kg/injection, schedule: Q04DX003 (ip), vehicle: saline with Tween-80
[4] = dose: 100.0 mg/kg/injection, schedule: Q01DX001 (ip), vehicle: saline
[5] = dose: 200.0 mg/kg/injection, schedule: Q01DX001 (ip), vehicle: saline
[6] = dose: 400.0 mg/kg/injection, schedule: Q01DX001 (ip), vehicle: saline
[7] = dose: 100.0 mg/kg/injection, schedule: Q04DX003 (ip), vehicle: other
[8] = dose: 200.0 mg/kg/injection, schedule: Q04DX003 (ip), vehicle: other
[9] = dose: 400.0 mg/kg/injection, schedule: Q04DX003 (ip), vehicle: other
[10] = dose: 100.0 mg/kg/injection, schedule: Q01DX001 (ip), vehicle: Klucel (hydroxypropylcellulose) (HPC)
[11] = dose: 200.0 mg/kg/injection, schedule: Q01DX001 (ip), vehicle: Klucel (hydroxypropylcellulose) (HPC)
[12] = dose: 400.0 mg/kg/injection, schedule: Q01DX001 (ip), vehicle: Klucel (hydroxypropylcellulose) (HPC)
[13] = dose: 100.0 mg/kg/injection, schedule: Q01DX009 (ip), vehicle: Klucel (hydroxypropylcellulose) (HPC)
[14] = dose: 200.0 mg/kg/injection, schedule: Q01DX009 (ip), vehicle: Klucel (hydroxypropylcellulose) (HPC)
[15] = dose: 400.0 mg/kg/injection, schedule: Q01DX009 (ip), vehicle: Klucel (hydroxypropylcellulose) (HPC)

Measured: T/C

C[N+](C)(CC(=O)Nc1ccc(Cl)c(Cl)c1)CC(=O)c1ccc(Cl)c(Cl)c1
inactive: [1] 100 % of control | [2] 100 % of control | [3] 102 % of control

O=[N+]([O-])c1cccc(CS(=O)(=O)c2ccccc2)c1-c1c(CS(=O)(=O)c2ccccc2)cccc1[N+](=O)[O-]
inactive: dose: 100.0 mg/kg/injection, schedule: Q04DX003 (ip), vehicle: saline sonified 101 % of control | dose: 200.0 mg/kg/injection, schedule: Q04DX003 (ip), vehicle: saline sonified 95 % of control | dose: 400.0 mg/kg/injection, schedule: Q04DX003 (ip), vehicle: saline sonified 94 % of control

C[N+](C)(Cc1ccccc1)C1c2ccccc2-c2ccccc21
inactive: dose: 0.5 mg/kg/injection, schedule: Q04DX002 (ip), vehicle: Klucel (hydroxypropylcellulose) (HPC) 109 % of control | dose: 1.0 mg/kg/injection, schedule: Q04DX002 (ip), vehicle: Klucel (hydroxypropylcellulose) (HPC) 109 % of control | dose: 2.0 mg/kg/injection, schedule: Q04DX002 (ip), vehicle: Klucel (hydroxypropylcellulose) (HPC) 109 % of control

COC(=O)CN1C(c2ccccc2)=CS(=O)(=O)C=C1c1ccccc1
inactive: [4] 101 % of control | [5] 97 % of control | [6] 93 % of control

Cc1ccccc1-n1nnnc1N
inactive: dose: 100.0 mg/kg/injection, schedule: Q04DX003 (ip), vehicle: saline 102 % of control | dose: 200.0 mg/kg/injection, schedule: Q04DX003 (ip), vehicle: saline 96 % of control | dose: 400.0 mg/kg/injection, schedule: Q04DX003 (ip), vehicle: saline 98 % of control

O=C1C=C/C(=N/c2ccc(O)o2)c2ccccc21
inactive: dose: 150.0 mg/kg/injection, schedule: Q01DX001 (ip), vehicle: saline 100 % of control

CC/C(C[n+]1ccccc1)=N\Nc1ccc([N+](=O)[O-])cc1[N+](=O)[O-]
inactive: dose: 5.0 mg/kg/injection, schedule: Q01DX001 (ip), vehicle: acetone 102 % of control | dose: 10.0 mg/kg/injection, schedule: Q01DX001 (ip), vehicle: acetone 100 % of control | dose: 20.0 mg/kg/injection, schedule: Q01DX001 (ip), vehicle: acetone 103 % of control | dose: 20.0 mg/kg/injection, schedule: Q04DX003 (ip), vehicle: saline 103 % of control | dose: 40.0 mg/kg/injection, schedule: Q01DX001 (ip), vehicle: acetone 108 % of control | dose: 40.0 mg/kg/injection, schedule: Q04DX003 (ip), vehicle: saline 95 % of control | dose: 80.0 mg/kg/injection, schedule: Q01DX001 (ip), vehicle: acetone 100 % of control

O=S(=O)(c1ccc(Br)cc1)C(F)(F)F
inactive: dose: 100.0 mg/kg/injection, schedule: Q04DX002 (ip), vehicle: saline with Tween-80 101 % of control | dose: 200.0 mg/kg/injection, schedule: Q04DX002 (ip), vehicle: saline with Tween-80 101 % of control | dose: 400.0 mg/kg/injection, schedule: Q04DX002 (ip), vehicle: saline with Tween-80 86 % of control

O=C1C=CC(=O)N1c1ccc(F)cc1 (tested in a mixture with another compound)
inactive: dose: 100.0 mg/kg/injection, schedule: Q04DX003 (ip), vehicle: acetone 86 % of control | [7] 97 % of control | dose: 200.0 mg/kg/injection, schedule: Q04DX003 (ip), vehicle: acetone 86 % of control | [8] 86 % of control | [9] 87 % of control and 95 % of control

CC(=O)Nc1ccc(C)cc1
inactive: [10] 94 % of control | [11] 102 % of control | [12] 91 % of control

COc1ccc(CCC(C(=O)O)c2ccc(OC)c(OC)c2)cc1OC (configuration not stated)
inactive: dose: 45.0 mg/kg/injection, schedule: Q01DX009 (ip), vehicle: Klucel (hydroxypropylcellulose) (HPC) 98 % of control and 100 % of control | dose: 50.0 mg/kg/injection, schedule: Q04DX003 (ip), vehicle: Klucel (hydroxypropylcellulose) (HPC) 96 % of control | dose: 65.0 mg/kg/injection, schedule: Q01DX009 (ip), vehicle: Klucel (hydroxypropylcellulose) (HPC) 93 % of control and 100 % of control | [13] 94 % of control and 104 % of control | dose: 100.0 mg/kg/injection, schedule: Q04DX003 (ip), vehicle: Klucel (hydroxypropylcellulose) (HPC) 103 % of control | dose: 150.0 mg/kg/injection, schedule: Q01DX009 (ip), vehicle: Klucel (hydroxypropylcellulose) (HPC) 93 % of control and 102 % of control | [14] 106 % of control | dose: 200.0 mg/kg/injection, schedule: Q04DX003 (ip), vehicle: Klucel (hydroxypropylcellulose) (HPC) 93 % of control and 96 % of control | [15] 101 % of control | dose: 400.0 mg/kg/injection, schedule: Q04DX003 (ip), vehicle: Klucel (hydroxypropylcellulose) (HPC) 98 % of control

CNC(=O)C1C(c2ccccc2)C1c1ccc(C)cc1 (configuration not stated)
inactive: dose: 100.0 mg/kg/injection, schedule: Q04DX002 (ip), vehicle: Klucel (hydroxypropylcellulose) (HPC) 88 % of control | dose: 200.0 mg/kg/injection, schedule: Q04DX002 (ip), vehicle: Klucel (hydroxypropylcellulose) (HPC) 92 % of control | dose: 400.0 mg/kg/injection, schedule: Q04DX002 (ip), vehicle: Klucel (hydroxypropylcellulose) (HPC) 103 % of control

O=C(O)c1ccccc1-c1ccccc1C(=O)O
inactive: [1] 111 % of control | [2] 97 % of control | [3] 94 % of control

NC(N)=NN=C1CCCCC1
inactive: dose: 15.0 mg/kg/injection, schedule: Q01DX Z (ip), vehicle: saline 92 % of control | dose: 30.0 mg/kg/injection, schedule: Q01DX Z (ip), vehicle: saline 92 % of control | dose: 60.0 mg/kg/injection, schedule: Q01DX Z (ip), vehicle: saline 102 % of control | dose: 60.0 mg/kg/injection, schedule: Q01DX Z (oral), vehicle: saline 105 % of control | dose: 120.0 mg/kg/injection, schedule: Q01DX Z (ip), vehicle: saline 97 % of control | dose: 120.0 mg/kg/injection, schedule: Q01DX Z (oral), vehicle: saline 108 % of control | dose: 240.0 mg/kg/injection, schedule: Q01DX Z (oral), vehicle: saline 100 % of control | dose: 480.0 mg/kg/injection, schedule: Q01DX Z (oral), vehicle: saline 103 % of control

Nc1nc2nsnc2nc1N
inactive: dose: 3.12 mg/kg/injection, schedule: Q01DX009 (ip), vehicle: water 86 % of control | dose: 6.25 mg/kg/injection, schedule: Q01DX009 (ip), vehicle: water 93 % of control | dose: 12.5 mg/kg/injection, schedule: Q01DX009 (ip), vehicle: water 90 % of control | dose: 25.0 mg/kg/injection, schedule: Q01DX009 (ip), vehicle: water 98 % of control and 106 % of control | dose: 50.0 mg/kg/injection, schedule: Q01DX009 (ip), vehicle: water 97 % of control and 91 % of control

O=C1OC(=O)c2cccc3cccc1c23
inactive: dose: 50.0 mg/kg/injection, schedule: Q01DX001 (ip), vehicle: Klucel (hydroxypropylcellulose) (HPC) 98 % of control | [10] 97 % of control | [11] 94 % of control | [12] 111 % of control

ClCC1CNC(c2ccccc2)O1 (configuration not stated)
inactive: dose: 12.5 mg/kg/injection, schedule: Q04DX003 (ip), vehicle: saline with Tween-80 96 % of control | dose: 25.0 mg/kg/injection, schedule: Q04DX003 (ip), vehicle: saline with Tween-80 101 % of control | dose: 50.0 mg/kg/injection, schedule: Q04DX003 (ip), vehicle: saline with Tween-80 98 % of control | dose: 100.0 mg/kg/injection, schedule: Q01DX001 (ip), vehicle: carboxymethylcellulose (CMC) 95 % of control | dose: 200.0 mg/kg/injection, schedule: Q01DX001 (ip), vehicle: carboxymethylcellulose (CMC) 93 % of control | dose: 400.0 mg/kg/injection, schedule: Q01DX001 (ip), vehicle: carboxymethylcellulose (CMC) 101 % of control

Cc1ccc(C2(CO)OCC(O)C(O)C2O)cc1 (configuration not stated)
inactive: [4] 100 % of control | [5] 96 % of control | [6] 98 % of control

CC(=O)NC1C(O)C(NC(C)=O)C(OC(C)=O)C(OC(C)=O)C1OC(C)=O (configuration not stated)
inactive: [1] 95 % of control | [2] 101 % of control | [3] 94 % of control

CN(C)N=Nc1ccc([N+](=O)[O-])cc1C(=O)O
inactive: dose: 25.0 mg/kg/injection, schedule: Q04DX003 (ip), vehicle: other 93 % of control | dose: 50.0 mg/kg/injection, schedule: Q04DX003 (ip), vehicle: other 98 % of control | [13] 100 % of control | [7] 98 % of control | [14] 103 % of control | [8] 101 % of control | [15] 110 % of control | [9] 98 % of control
